This is an account of results in patent publication US11952378B1, “Pyrrolo[2,3-c]isoquinoline-1,2-dione compounds as CK2 inhibitors” (KING FAISAL UNIVERSITY, priority 2023, dated 2024).

One test has as its system PC3 (prostate). Put plainly: In vitro cytotoxic activity assay (MTT), PC3. The test is classed as cell-based. As to conditions: Homo sapiens, Prostate cell; PC3 (prostate) cells, exposed for 96 hours; read-out: IC50, concentration eliciting 50% inhibition of cell proliferation. On the procedure: (§1) Compounds 1-16 were screened for their in vitro cytotoxic behavior using a 3-(4,5-dimethyl-thiazol-2-yl)-2,5-diphenyltetrazolium bromide (MTT) assay against selected cancer human cell lines consisting of PC3 (prostate), HCT116 (colon), A375 (melanoma), H1299 (lung), MIAPaCa-2 (pancreas), HL60 (leukemia), MCF7 (breast), MDA-MB-231 (breast) (T. Mosmann, J. Immunol. Meth., 1983, 65, 55-63). The cells were cultured at 37° C. in RMPI1640 medium supplemented with 10% fetal bovine serum, 50 IU/mL penicillin, and 50 μg/mL streptomycin in a 5% CO2 incubator. All cells were sub-cultured 3 times/week by trypsinisation. Viable cells were seeded and allowed to adhere for 12 h before a test drug was added in 96-well plates at an initial density of 1.0×10^5 cells/mL. Tumor cell lines were separately exposed to various concentrations of the tested compounds followed by incubation at a temperature of 37° C. during 96 h inside a medium of fresh RMPI 1640. Cells were subsequently incubated at 37° C. using MTT at 0.5 mg/mL during 4 hours. After removal of supernatant, formazan crystals were dissolved in isopropanol and the optical density was measured at 570 nm. CX-4945 was used as a positive control.

The subject of a further test is HCT116 (colon). The test can be described thus: In vitro cytotoxic activity assay (MTT), HCT116. The test is classed as cell-based. Particulars: Homo sapiens, HCT-116; HCT116 (colon) cells, exposed for 96 hours; read-out: IC50, concentration eliciting 50% inhibition of cell proliferation. On the procedure:
as §1

Another test deals with A375 (melanoma). The test can be described thus: In vitro cytotoxic activity assay (MTT), A375. Particulars: Homo sapiens, A-375; A375 (melanoma) cells, exposed for 96 hours; read-out: IC50, concentration eliciting 50% inhibition of cell proliferation. The test is classed as cell-based. On the procedure:
as §1

In the next test the test system is H1299 (lung). The test can be described thus: In vitro cytotoxic activity assay (MTT), H1299. It counts as cell-based. As to conditions: Homo sapiens, NCI-H1299; H1299 (lung) cells, exposed for 96 hours; read-out: IC50, concentration eliciting 50% inhibition of cell proliferation. As for the experimental part: as §1
The test system of the next test is MIAPaCa-2 (pancreas). Put plainly: In vitro cytotoxic activity assay (MTT), MIAPaCa-2. It counts as cell-based. Particulars: Homo sapiens, MIA PaCa-2; MIAPaCa-2 (pancreas) cells, exposed for 96 hours; read-out: IC50, concentration eliciting 50% inhibition of cell proliferation. As for the experimental part:
as §1

A further test deals with HL60 (leukemia). The test can be described thus: In vitro cytotoxic activity assay (MTT), HL60. Particulars: Homo sapiens, HL-60; HL60 (leukemia) cells, exposed for 96 hours; read-out: IC50, concentration eliciting 50% inhibition of cell proliferation. The test is classed as cell-based. On the procedure:
as §1

For a further test, the system named is MCF7 (breast). The test can be described thus: In vitro cytotoxic activity assay (MTT), MCF7. The test is classed as cell-based. As to conditions: Homo sapiens; MCF7 (breast) cells, exposed for 96 hours; read-out: IC50, concentration eliciting 50% inhibition of cell proliferation. On the procedure: as §1
A further test concerns MDA-MB-231 (breast). The test can be described thus: In vitro cytotoxic activity assay (MTT), MDA-MB-231. Particulars: Homo sapiens; MDA-MB-231 (breast) cells, exposed for 96 hours; read-out: IC50, concentration eliciting 50% inhibition of cell proliferation. It counts as cell-based. On the procedure:
as §1

Test [1] deals with T1, recombinant human CK2 (RRββ-holoenzyme) (Homo sapiens, UniProt P68400).
T1 construct: purchased Millipore
T1 sequence (P68400 whole entry): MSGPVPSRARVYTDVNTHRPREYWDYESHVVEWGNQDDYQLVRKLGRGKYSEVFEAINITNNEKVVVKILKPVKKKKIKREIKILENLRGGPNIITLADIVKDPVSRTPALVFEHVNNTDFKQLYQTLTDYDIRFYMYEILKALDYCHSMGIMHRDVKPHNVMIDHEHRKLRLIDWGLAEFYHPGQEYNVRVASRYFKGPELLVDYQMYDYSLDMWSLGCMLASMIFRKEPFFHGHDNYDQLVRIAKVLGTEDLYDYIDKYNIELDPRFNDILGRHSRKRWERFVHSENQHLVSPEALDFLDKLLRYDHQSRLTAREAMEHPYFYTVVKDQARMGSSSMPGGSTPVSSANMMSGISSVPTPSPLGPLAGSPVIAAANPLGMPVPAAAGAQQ
T1 sequence (P67870 whole entry partner): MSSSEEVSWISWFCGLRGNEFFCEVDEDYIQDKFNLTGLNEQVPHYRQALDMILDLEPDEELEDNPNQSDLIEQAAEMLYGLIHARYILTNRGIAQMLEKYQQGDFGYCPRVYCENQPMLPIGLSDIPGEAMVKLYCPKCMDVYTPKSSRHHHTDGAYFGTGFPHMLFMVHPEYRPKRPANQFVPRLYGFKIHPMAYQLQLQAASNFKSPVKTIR
The test can be described thus: CK2 Kinase Assay ([γ-33P]ATP, substrate peptide RRRDDDSDDD). It counts as biochemical. As to conditions: final ATP concentration 15 μM, 10 minutes at 30° C.; read-out: protein kinase CK2 IC50. On the procedure: CK2 Kinase Assay was conducted using the previously described protocol (Pierre F. et al; J. Med. Chem. 2011, 54, 635-654). The tested compounds in aqueous solution were added at a volume of 10 μL to a reaction mixture comprising 10 μL of assay dilution buffer (ADB; 20 mM MOPS, pH 7.2, 25 mM β-glycerol phosphate, 5 mM EGTA, 1 mM sodium orthovanadate, and 1 mM dithiothreitol), 10 μL of substrate peptide (RRRDDDSDDD, dissolved in ADB at a concentration of 1 mM), 10 μL of recombinant human CK2 (RRββ-holoenzyme, 25 ng dissolved in ADB; Millipore). Reactions were initiated by the addition of 10 μL of ATP solution (90% 75 mMMgCl2, 75 μM ATP (final ATP concentration: 15 μM) dissolved in ADB; 10% [γ-33P] ATP (stock 1 mCi/100 μL; 3000 Ci/mmol (Perkin-Elmer) and maintained for 10 minutes at 30° C. The reactions were quenched with 100 μL of 0.75% phosphoric acid and then transferred to and filtered through a phosphor cellulose filter plate (Millipore). After washing each well five times with 0.75% phosphoric acid, the plate was dried under vacuum for 5 min and, following the addition of 15 μL of scintillation fluid to each well, the residual radioactivity was measured using a Wallac luminescence counter. The IC50 values were derived from eight concentrations of test inhibitors.

As to `O=C1Nc2nc(Nc3cccc(Cl)c3)c3cc(C(=O)O)ccc3c2C1=O` [Compound 1, 5-((3-chlorophenyl)amino)-1,2-dioxo-2,3-dihydro-1H-pyrrolo[2,3-c]isoquinoline-7-carboxylic Acid], the IC50 with PC3 (prostate) is 1200 nM; with HCT116 (colon), 1300 nM; with A375 (melanoma), 2700 nM; in the test with H1299 (lung), 1900 nM; in the test with MIAPaCa-2 (pancreas) it was 1300 nM; in the test with HL60 (leukemia), 3400 nM. Besides, the IC50 was 5500 nM in the test with MCF7 (breast), 4100 nM in the test on MDA-MB-231 (breast) and 55 nM in test [1].
